Measured values: patent US20060211705A1, “'N-(2-chloro-6-methylphenyl)-2-[[6-[4-(2-hydroxyethyl)-1-piperazinyl]-2-methyl-4-pyrimidinyl]amino]-5-thiazolecarboxamides metabolites” (priority 2005, published 2006)

Legend:
[1] = Metabolite profile of [14C] compound (I) in monkey hepatocyte incubations; format: in vitro ADME, cynomolgus monkey; conditions: (Ia) 20 μM, 3 h, 37° C., ~2 million cells/mL; relative distribution in radiochromatographic profile
Experimental: (§1) The compound of formula (I) was used as the [^14C] compound (Ia) (30.4 μCi/mg, radiochemical purity 99.2%), as the monohydrate of the free base. The C-14 label was on the carbon in the 2-position of the thiazole ring.
(§2) Freshly isolated rat hepatocyte preparations were prepared from one male Sprague-Dawley rat. Rat Hepatocytes were prepared according to a standard procedure (Seglen, PO. Preparation of isolated rat liver cells. Methods Cell Biol., 1976, 13: 29-83). Cryopreserved cynomolgus monkey hepatocytes (male, pooled, n=6) and human hepatocytes (3 individual preparation) were purchased from In Vitro Technologies (Baltimore, Md.). Microsomes from male SD Rats (pooled, n=200, 20 mg/mL) and male cynomolgus monkeys (pooled, n=8, 20 mg/mL) were obtained from Xenotech LLC, Kansas City, Kans. Human liver microsomes (male, pooled, n=38) were from BD-Gentest, Woburn, Mass.
(§3) A 6 mM stock solution of the compound of formula (Ia) (the [^14C] of the compound of formula (I) was prepared at by dissolving 3.7 mg of the compound of formula (Ia) into 1:1 acetonitrile/DMSO. The 2 mM stock solution of the compound of formula (Ia) was obtained by diluting an aliquot of the 6 mM stock solution 3-fold with acetonitrile.
(§4) Human (3 vials from 3 individuals) and monkey cryopreserved hepatocytes were thawed according to the procedure provided by In Vitro Technologies. Briefly, the caps of the cryovials were loosened to release any trapped liquid nitrogen and kept on ice for 2 min. The caps were tightened and the vials were immersed in a 37° C. water bath for 75-90 sec with gentle shaking. The thawed samples (3 cryovials/[…] for each 50 mL tube) were transferred into 25 mL pre-warmed Krebs-Henseleit buffer in a 50 mL tube and gently inverted. The suspensions were evenly divided into 2 tubes and diluted to 40 mL with pre-warmed Krebs-Henseleit buffer. The tubes were centrifuged in an Eppendorf 5810R centrifuge (Hamburg, Germany) at 200 rpm at 4° C. for 10 min. The supernatant was discarded and the pellet gently suspended in 2 mL of Krebs-Henseleit buffer. All the tubes were combined into one tube, rinsing the empty tubes with 1 mL Krebs-Henseleit buffer. The cells were counted, checked for viability and diluted accordingly with modified Krebs-Henseleit buffer to give a final concentration of 2 million viable cells/mL.
(§5) Viability of the hepatocytes was checked using a Trypan Blue exclusion assay and a hemocytometer. A mixture of 0.1 mL of the hepatocyte suspension and 0.1 mL of trypan blue solution were diluted with 0.8 mL of Krebs-Henseleit buffer. The solution was gently mixed and plated onto a Levy hemocytometer (Hausser Scientific) and the viable cells (unstained) were counted under a light microscope. The viability of the hepatocytes ranged from 77% to 90% at the beginning of the incubations.
(§6) Hepatocyte incubations were conducted at 37° C. for 3 h in a NAPCO CO2 6000 incubator (VWR Scientific Products) under a 5% CO2 atmosphere using an orbital shaker at 90 rpm. For each incubation, the final concentration of compound (Ia) was 20 μM and the hepatocyte concentrations were ˜2 million cells/mL. A control incubation, in the absence of hepatocytes, was also performed for 3 h. The incubations were stopped by adding one volume of ice-cold acetonitrile. Each 0.5 mL incubation contained 0.1 M potassium phosphate buffer (pH 7.4), 2.5 mM MgCl2, 2 mg/mL microsomal protein, and 2.0 mM NADPH. The final substrate concentration was 20 μM. The mixtures were incubated in a shaking water bath at 37° C. for 15 min. Control incubations in the absence of microsomes or NADPH were performed for each species. The reactions were stopped with the addition of 1 mL of ice-cold acetonitrile.
(§7) HPLC was performed on a Waters Alliance™ system equipped with Waters 2695 pumps and a photodiode array detector (Waters 2996). A Phenomenex Synergy Polar-RP® column (4.6×250 mm, 5 micron) was used for metabolite separation. […]

[2] = Metabolite profile of [14C] compound (I) in human hepatocyte incubations; format: in vitro ADME; conditions: (Ia) 20 μM, 3 h, 37° C., ~2 million cells/mL; relative distribution in radiochromatographic profile
Experimental: as §1, §2, §3, §4, §5, §6, §7

[3] = Metabolite profile of [14C] compound (I) in human liver microsome incubations; format: in vitro ADME; conditions: (Ia) 20 μM, 15 min, 37° C., 2 mg/mL microsomal protein, 2.0 mM NADPH
Experimental: as §1, §2, §3, §6
(§8) HPLC was performed on a Waters Alliance™ system equipped with Waters 2695 pumps and a photodiode array detector (Waters 2996). A Phenomenex Synergy Polar-RP® column (4.6×250 mm, 5 micron) was used for metabolite separation. All HPLC analyses were performed at 1 mL/min flow rate at room temperature. Two HPLC mobile phase and gradient systems were used because all metabolites could not be completely separated on either of the individual HPLC systems. The first system consisted of (A) water with 0.1% formic acid and (B) acetonitrile with 0.1% formic acid as mobile phase. The linear gradient was as follows: 0 min, 20% B; 1 min, 20% B; 41 min, 35% B; 42 min, 90% B; 44 min, 90% B. The column was re-equilibrated at 20% B for 6 min before the next injection. The second HPLC system was used to separate certain co-eluting metabolites that could not be separated by the first system. The mobile phase consisted of (A) water with 0.1% triflouroacetic acid (TFA) and (B) acetonitrile with 0.1% TFA. The gradient was as follows: 0 min, 20% B; 1 min, 20% B; 51 min, 35% B; 52 min, 90% B; 54 min 90% B. The column was equilibrated at 20% B for 6 min prior to the next injection.
(§9) On-line radioactivity detection (RAD) was conducted using an INUS β-RAM detector (Model 3, INUS, Tampa, Fla.). The β-RAM was operated with a 500 μL liquid flow cell in the homogeneous liquid scintillation counting mode. A flow rate of 2 mL/min of scintillation cocktail was mixed with the HPLC effluent. The effluent from HPLC was split to the β-RAM detector (90%) and the mass spectrometer (10%) by adjusting the length and diameter of post column tubings. The β-RAM detector provided integrated output detailing the percentage and amount of radioactivity under each radioactive peak.
(§10) Hepatocyte and liver microsomal incubations were quenched with acetonitrile and were vortex-mixed for 3 min. […]

[4] = Metabolite profile of [14C] compound (I) in rat liver microsome incubations; format: in vitro ADME, SD rat; conditions: (Ia) 20 μM, 15 min, 37° C., 2 mg/mL microsomal protein, 2.0 mM NADPH
Experimental: as §1, §2, §3, §6, §8, §9, §10

| Structure (SMILES) | % of Radioactivity in Hepatocytes, Monkey [1] [%] | % of Radioactivity in Hepatocytes, Human [2] [%] | % of Radioactivity in Microsomes, Human [3] [%] | % of Radioactivity in Microsomes, Rat [4] [%] |
| --- | --- | --- | --- | --- |
| Cc1nc(Nc2ncc(C(=O)Nc3c(C)cccc3Cl)s2)cc(N2CCNCC2)n1 [M4 (II)] | 3.7 | 1.0 | 4.0 | 1.8 |
| Cc1nc(Nc2ncc(C(=O)Nc3c(C)cc(O)cc3Cl)s2)cc(N2CCN(CCO)CC2)n1 [M20 (V)] | 4.5 | 2.6 | 39.2 | 4.5 |
| Cc1nc(Nc2ncc(C(=O)Nc3c(C)cccc3Cl)s2)cc(N2CCN(CC(=O)O)CC2)n1 [M6 (IV), 2-(4-(6-(5-((2-Chloro-6-methylphenyl)carbamoyl)thiazol-2-ylamino)-2-methylpyrimidin-4-yl)piperazin-1-yl)acetic acid] | 6.5 | 9.2 | 1.6 | 0.7 |
| Cc1nc(Nc2ncc(C(=O)Nc3c(Cl)cccc3CO)s2)cc(N2CCN(CCO)CC2)n1 [M24 (VI), N-(2-chloro-6-(hydroxymethyl)phenyl)-2-(6-(4-(2-hydroxyethyl)piperazin-1-yl)-2-methylpyrimidin-4-ylamino)thiazole-5-carboxamide] | 4.5 | 2.6 | 39.2 | 4.5 |
| Cc1nc(Nc2ncc(C(=O)Nc3c(C)cccc3Cl)s2)cc(N2CC[N+]([O-])(CCO)CC2)n1 [M5 (III)] | 3.2 | 2.3 | 4.0 | 37.3 |
| Cc1nc(Nc2ncc(C(=O)Nc3c(C)cccc3Cl)s2)cc(N2CCN(CCO)CC2)n1 [Parent (I), N-(2-Chloro-6-methylphenyl)-2-[[6-[4-(2-hydroxyethyl)-1-piperazinyl]-2-methyl-4-pyrimidinyl]amino]-5-thiazolecarboxamide] | 61.2 | 77.7 | 35.5 | 54.2 |
